COc1ccc(C(=O)O)c(OC)c1
solubility (mole fraction)
Conditions | 288.15 K | 293.15 K | 298.15 K | 303.15 K | 308.15 K | 313.15 K | 318.15 K | 323.15 K
in ethanol | 0.0116 | 0.0149 | 0.0191 | 0.0244 | 0.0312 | 0.0398 | 0.0507 | 0.0644
in ethyl acetate | 0.0165 | 0.0205 | 0.0253 | 0.0312 | 0.0382 | 0.0467 | 0.0567 | 0.0687
in isobutanol | 0.0059 | 0.0079 | 0.0105 | 0.0139 | 0.0183 | 0.0239 | 0.0311 | 0.0401
in isopropanol | 0.0059 | 0.0081 | 0.0109 | 0.0147 | 0.0195 | 0.0259 | 0.034 | 0.0445
in n-butanol | 0.0086 | 0.0112 | 0.0146 | 0.0188 | 0.0242 | 0.0309 | 0.0393 | 0.0498
in n-propanol | 0.0087 | 0.0114 | 0.015 | 0.0195 | 0.0252 | 0.0325 | 0.0417 | 0.0532

From BigSolDB 2.1
